Key:
hPSC = assay: Directed cardiac differentiation of hPSC in minimal media (Example 1); assay type: cell-based, human; details: for inducing cardiac differentiation (GSK-3β inhibitors, Wnt signaling agonists): BIO 2-5 μM, CHIR-99021 4-10 μM; for Wnt signaling antagonist effective for cardiac differentiation: at a concentration of 5 μM; for further enhancement of differentiation by pathway inhibitors: small molecule inhibitors at the later stage of differentiation
Experimental: Directed Cardiac Differentiation Procedure. (volumes provided are for a T25 flask; adjust volumes proportionately for larger vessels) Day 0 (day 4 after passage): Aspirate medium, and replace with 5 mL of minimal media (CDM3, D3, D4, or D11) supplemented with 6 uM of CHIR-99021 (CHIR-99021 can be used at 4-15 μM). Place flasks in a regular ambient O2, 5% CO2 incubator. Day 2: 48 h. Aspirate media and replace with 5 mL of minimal media (CDM3, D3, D4, or D11). Day 3: 72 h. Aspirate media and replace with 5 mL of minimal media (CDM3, D3, D4, or D11) supplemented with 0.5 uM C59 (C59 may be used at 0.5-5 μM). Day 5: Aspirate media and replace with 5 mL of minimal media (CDM3, D3, D4, or D11). From day 5 onwards media should be changed every 2 days with minimal media (CDM3, D3, D4, or D11).
From day 0 to day 2 (d0-d2), minimal media (CDM3, D3, D4, or D11) was supplemented with the Wnt signaling agonist CHIR-99021 (6-10 uM 48 h, d0-d2), which triggers canonical Wnt/β-Catenin signaling that leads to the subsequent up-regulation of BMP4 and activin A. Media is then exchanged to non-supplemented minimal media (CDM3, D3, D4, or D11) for 1 day followed by contact with a Wnt signaling antagonist (e.g., C59: 0.5-5 uM, 48 h, d3-d5) for 2 days. At day 5, 7, and 9 minimal media (CDM3, D3, D4, or D11) is exchanged for fresh media, and contraction begins between d7 and d10. At day 11, media is exchanged to a variant of minimal media (CDM3, D3, D4, or D11) without […] that results in the depletion of non-cardiomyocytes due to a lack of glycogen stores. Media was exchanged on day 13 for fresh media lacking glucose. At day 15, media was exchanged for fresh minimal media (CDM3, D3, D4, or D11) (containing glucose).
The presence of cardiomyocytes was verified in a number of different ways, for example: flow cytometry of cells contacted with an antibody specific for a cardiomyocyte marker (TNNT2); imaging of cells stained with antibodies specific for α-Sarcomeric actin (red) and Troponin T (TNNT2); electrophysiological profiling; and evaluating responsiveness to known cardioactive drugs (e.g., Norepinephrine). Assays performed on multiple different cell lines (including several hESC lines and over 30 hiPSC lines) confirmed that the subject methods are highly consistent and highly efficient, as very little variability was observed among the different cell lines.

hiPSC = assay: Analysis of components of defined media for hiPSC cardiac differentiation (contraction score); assay type: cell-based, human; parameters: 9 components subtracting: cardiac differentiation score / 2 components subtracting: cardiac differentiation score: scale not given here
Description: Development of a Chemically Defined Cardiac Differentiation Platform. We first generated eleven pluripotent hiPSC lines under chemically defined conditions (FIG. 7) on a chemically synthesized vitronectin peptide substrate, with nonenzymatic passaging (FIG. 8). […] To formulate a chemically defined differentiation protocol, we concentrated on the observation that three unrelated media formations are capable of supporting growth factor-based monolayer cardiac differentiation: RPMI+B27-ins, supplemented StemPro-34, and LI-APEL (Table 5). […] Beginning with the 21 components of B27, we subtracted one component at a time and assessed for continued high efficiency differentiation (Table 6a-c) and also assessed components from two other two media (supplemented StemPro-34 and LI-APEL) that yielded benefits (Table 6d-f). We concluded that hiPSC cardiac differentiation was successful in a media consisting of […]: RPMI 1640 basal medium, L-ascorbic acid 2-phosphate (AA 2-P), and BSA (Table 6g).
Other additions to cardiac differentiation media tested were 10.7 μg/mL recombinant human transferrin, […], 1 μg/mL linoleic acid, 1 μg/mL linolenic acid, 2 ng/mL triiodo-l-thyronine, 2 μg/mL L-carnitine, 1 μg/mL D,L-alpha-tocopherol acetate, 100 ng/mL retinol acetate, 1 μg/mL ethanolamine, 20 ng/mL corticosterone, 9 ng/mL progesterone, 47 ng/mL lipoic acid, 100 ng/mL retinol, 1 μg/mL D,L-alpha-tocopherol, 100 ng/mL biotin, 2.5 ug/mL catalase, 2.5 μg/mL glutathione, 2.5 μg/mL superoxide dismutase, 2 μg/mL L-carnitine, 15 μg/mL D(+)-galactose, 16.1 μg/mL putrescine, 450 μM 1-thioglycerol, 55 μM 2-mercaptoethanol, 64 μg/mL L-ascorbic acid 2-phosphate (all from Sigma-Aldrich).

hiPSCs = assay: Cardiac differentiation of hiPSCs in CDM3, optimisation of media and small molecules (TNNT2 flow cytometry); assay type: cell-based; details: for cell death / toxicity of GSK3B inhibitors: in CDM3, FIG. 10g; for inducing cardiac differentiation (GSK3B inhibitors): in CDM3, FIG. 10g-h; for timing of Wnt signaling modulation for cardiac differentiation efficiency: CHIR99021 for 2 days followed by Wnt-C59 for 2 days, in CDM3
Experimental: Cardiac differentiation of hiPSCs. hiPSCs and hESCs (>p20) were split at 1:10 or 1:12 ratios using EDTA as above and grown for 4 days at which time they reached ˜85% confluence. Media was changed to CDM3, consisting of RPMI 1640 (11875, Life Technologies), 495 μg/mL Oryza sativa-derived recombinant human albumin (A0237, Sigma-Aldrich, 75 mg/mL stock solution in dH2O, stored at −20° C.), 213 μg/mL L-ascorbic acid 2-phosphate (Sigma-Aldrich, 64 mg/mL stock solution in dH2O, stored at −20° C.). Media was changed every other day (48 h). For d0-d2, media was supplemented with 6 μM CHIR99021 (LC Laboratories, Woburn, Mass., USA). On d2, media was change to CDM3 supplemented with […] Wnt-C59 (Cellagentech, San Diego, Calif., USA). Media was changed on d4 and every other day for CDM3.
Wnt inhibitors assessed were IWP-2, IWR-1 (Sigma-Aldrich), XAV-939, ICG-001 (Selleck Chemicals), IWP-4 (Stemgent, Cambridge, Mass., USA), and Wnt-C59 (Cellagentech). GSK3B inhibitors assessed were CHIR99021 (LC Laboratories), BIO, TWS119 (Selleck Chemicals), 1-azenkenpaullone, TDZD-8, ARA014418, and 3F8 (all Sigma-Aldrich). Inhibitors used for pathway analysis were PD173074, SB203580, LDN193189, SB431542 (all Selleck Chemicals), SU5402, Dorsomorphin, A83-01 (Tocris, Bristol, UK), ALK5 inhibitor (Stemgent), and ITD-1 (Xcessbio, San Diego, Calif., USA). All small molecules were re-suspended to 10 mM in dimethyl sulfoxide (DMSO).
Flow cytometry. For optimization of cardiac differentiation conditions, cells were cultured in 12-well plates. For analysis of cardiomyocyte differentiation efficacy and subtype specification, expression of TNNT2, MLC2A and MLC2V was analyzed by flow cytometry. At d14-15 of differentiation, the entire well was dissociated with TrypLE Express for 10 min at 37° C. and transferred to flow cytometry tubes (BD Biosciences). Cells were then fixed with 1% PFA for 15 min, permeabilized with 90% methanol for 15 min and stained using 1:200 mouse monoclonal IgG1 TNNT2 (13-11, Thermo Scientific), 1:400 mouse monoclonal IgG2b MLC2A (MYL7, Synaptic Systems) and 1:200 rabbit polyclonal IgG MLC2V (MYL2, ProteinTech) for 45 min at RT. Secondary staining was performed with 1:1000 Alexa Fluor 488 goat anti-mouse IgG1, 1:1000 Alexa Fluor 488 goat anti-rabbit IgG (H+L), 1:1000 Alexa Fluor 647 goat anti-mouse IgG2b and 1:1000 Alexa Fluor 647 goat anti-rabbit IgG (H+L) secondary antibodies for 20 min. […] Cells were analyzed using a FACSAria II (BD Biosciences) with a […] and FACSDiva software. Data were analyzed using FlowJo 8.7 (Tree Star).

OCC(O)CS (stereo not drawn) [1-thioglycerol]
effect of addition on differentiation (hPSC; addition d0-d2, PVA 0.4%): severely limited rather than enhanced differentiation
9 components with the addition of: cardiac differentiation score (hiPSC; d) addition of components from the other media formulae of Table 5): 0

O=C1O[C@H]([C@@H](O)CO)C(O)=C1OP(=O)(O)O [AA 2-P, L-ascorbic acid 2-phosphate]
effect of omitting the component from the differentiation medium (hiPSCs; medium without AA 2-P (FIG. 10a)): total cell death
9 components with the addition of: cardiac differentiation score (hiPSC; d) component at 10 x concentration): +++ (>75% contraction)
9 components (with 4 at 10x) subtracting: cardiac differentiation score (hiPSC; e) third medium with increased concentrations, each component subtracted): 0
6 components subtracting: cardiac differentiation score (hiPSC; f) fourth 6-component medium, each component subtracted): 0
2 components subtracting: cardiac differentiation score (hiPSC; g) final 3-component medium (RPMI 1640, BSA, 10 x L-ascorbic acid 2-phosphate), component subtracted): 0

O=C1Nc2cc(Br)ccc2/C1=C1/Nc2ccccc2/C1=N\O [BIO, 6-bromo-3-[(3E)-1,3-dihydro-3-(hydroxyimino)-2H-indol-2-ylidene]-1,3-dihydro-(3Z)-2H-indol-2-one]
inducing cardiac differentiation (GSK-3β inhibitors, Wnt signaling agonists) (hPSC): successful at inducing cardiac differentiation
cell death / toxicity of GSK3B inhibitors (hiPSCs): did not cause total cell death
inducing cardiac differentiation (GSK3B inhibitors) (hiPSCs): successful at inducing any suitable cardiac differentiation

Cc1cc(-c2ccc(CC(=O)Nc3ccc(-c4cccnc4)cc3)cc2)ccn1 [C59]
Wnt signaling antagonist effective for cardiac differentiation (hPSC): effective
timing of Wnt signaling modulation for cardiac differentiation efficiency (hiPSCs): optimal

Cc1cnc(-c2cnc(NCCNc3ccc(C#N)cn3)nc2-c2ccc(Cl)cc2Cl)[nH]1 [CHIR-99021, 6-[[2-[[4-(2,4-dichlorophenyl)-5-(5-methyl-1H-imidazol-2-yl)-2-pyrimidinyl]amino]ethyl]amino]-3-pyridinecarbonitrile]
inducing cardiac differentiation (GSK-3β inhibitors, Wnt signaling agonists) (hPSC): successful at inducing cardiac differentiation
timing of Wnt signaling modulation for cardiac differentiation efficiency (hiPSCs): optimal
cell death / toxicity of GSK3B inhibitors (hiPSCs): did not cause total cell death
inducing cardiac differentiation (GSK3B inhibitors) (hiPSCs): successful at inducing any suitable cardiac differentiation

O=C(Nc1cccc2cccnc12)c1ccc(N2C(=O)C3C4C=CC(C4)C3C2=O)cc1 (stereo not drawn) [IWR-1, 4-(1,3,3a,4,7,7a-Hexahydro-1,3-dioxo-4,7-methano-2H-isoindol-2-yl)-N-8-quinolinyl-Benzamide]
Wnt signaling antagonist effective for cardiac differentiation (hPSC): effective

c1ccc2c(-c3cnn4cc(-c5ccc(N6CCNCC6)cc5)cnc34)ccnc2c1 [LDN193189]
further enhancement of differentiation by pathway inhibitors (hPSC): did not further enhance the differentiation

c1ccc(-c2[nH]ncc2-c2ccnc3ccccc23)nc1 [LY364947]
further enhancement of differentiation by pathway inhibitors (hPSC): did not further enhance the differentiation

C[S+]([O-])c1ccc(-c2nc(-c3ccncc3)c(-c3ccc(F)cc3)[nH]2)cc1 (stereo not drawn) [SB203580]
further enhancement of differentiation by pathway inhibitors (hPSC): did not further enhance the differentiation

O=c1[nH]c(-c2ccc(C(F)(F)F)cc2)nc2c1CSCC2 [XAV939, 3,5,7,8-Tetrahydro-2-[4-(trifluoromethyl)phenyl]-4H-thiopyrano[4,3-d]pyrimidin-4-one]
Wnt signaling antagonist effective for cardiac differentiation (hPSC): effective

Source: patent US9234176B2, “Chemically defined production of cardiomyocytes from pluripotent stem cells” (The Board of Trustees of the Leland Stanford Junior …, priority 2012, dated 2016)
